# Measurements from PMC7570844, “Skin Damages—Structure Activity Relationship of Benzimidazole Derivatives Bearing a 5-Membered Ring System” (Molecules, 2020).
# Values joined by “and” are separate entries in the source; they are usually repeats but may differ in a detail not shown here. Equal values may be shown once.
# Assays:
# [1] = DPPH radical scavenging test; conditions: mean ± SEM; for DPPH (% Inhibition): tested at 1 mg/mL
# [2] = tested on: herpes simplex virus-2 (G); assay: Antiviral activity in HEL cell cultures (CPE, MTS); type: cell-based; conditions: Human alphaherpesvirus 2; Herpes simplex virus-2, HEL cells
# [3] = tested on: human embryonic lung (HEL) cell cultures
# [4] = tested on: human T-lymphocyte cells (CEM); assay: Cell proliferation inhibition
# [5] = tested on: herpes simplex virus-1 (KOS); assay: Antiviral activity in HEL cell cultures (CPE, MTS); type: cell-based; conditions: Human alphaherpesvirus 1, HEL cells
# [6] = tested on: vesicular stomatitis virus; assay: microbe, parasite or virus in culture; type: cell-based; conditions: HeLa, read-out: Antiviral EC50
# HeLa cell cultures = conditions: human
# [7] = tested on: HEK293T (Normal Kidney Epithelial Cells); assay: Cell proliferation inhibition, non-cancer control cells; conditions: Homo sapiens, HEK-293T
# [8] = tested on: human melanoma cells (SK-Mel 5); assay: Cell proliferation inhibition
# Epidermophyton floccosum = assay: Antidermatophyte plaque growth inhibition; type: cell-based; conditions: for inhibition at 100 µg/mL: E. floccosum, '+' has no key, read-out: Percent growth inhibition; for IC50: E. floccosum growth, read-out: IC50
# [9] = tested on: herpes simplex virus-1 TK-KOS ACVr; assay: microbe, parasite or virus in culture; type: cell-based; conditions: Human alphaherpesvirus 1, HEL, read-out: Antiviral EC50
# [10] = tested on: human cervical carcinoma cells (HeLa); assay: Cell proliferation inhibition
# [11] = tested on: Respiratory syncytial virus; assay: microbe, parasite or virus in culture; type: cell-based; conditions: human respiratory syncytial virus, HeLa cells, read-out: Antiviral EC50
# [12] = tested on: human pancreatic carcinoma cells (Mia Paca-2); assay: Cell proliferation inhibition
# Trichophyton tonsurans = assay: Antidermatophyte plaque growth inhibition; type: cell-based; conditions: for inhibition at 100 µg/mL: T. tonsurans, '+' has no key, read-out: Percent growth inhibition; for IC50: T. tonsurans growth, read-out: IC50
# Human Coronavirus (229E) = assay: microbe, parasite or virus in culture; type: cell-based; conditions: HEL, read-out: Antiviral EC50
# Coxsackie virus B4 = assay: Antiviral activity in HeLa cell cultures (CPE, MTS); type: cell-based; conditions: Enterovirus B; Coxsackie virus B4, HeLa cells
# Microsporum gypseum = assay: Antidermatophyte plaque growth inhibition; type: cell-based; conditions: Nannizzia gypsea; for inhibition at 100 µg/mL: M. gypseum, '+' has no key, read-out: Percent growth inhibition; for IC50: M. gypseum growth, read-out: IC50
# Adeno virus-2 = assay: Antiviral activity in HEL cell cultures (CPE, MTS); type: cell-based; conditions: Adeno virus-2, HEL cells
# [13] = Ferric reducing antioxidant power (FRAP) test; conditions: mean ± SEM
# [14] = UV filtering parameters of compounds in solution (MeOH, 290-400 nm)
# Microsporum canis = assay: Antidermatophyte plaque growth inhibition; type: cell-based; conditions: for inhibition at 100 µg/mL: M. canis, '+' has no key, read-out: Percent growth inhibition; for IC50: M. canis growth, read-out: IC50
# vaccinia virus = assay: microbe, parasite or virus in culture; type: cell-based; conditions: Orthopoxvirus vaccinia, HEL, read-out: Antiviral EC50
# [15] = tested on: Trichophyton mentagrophytes; assay: Antidermatophyte plaque growth inhibition; type: cell-based; conditions: for inhibition at 100 µg/mL: T. mentagrophytes, '+' has no key, read-out: Percent growth inhibition; for IC50: T. mentagrophytes growth, read-out: IC50
# [16] = tested on: M. gypseum, M. canis, T. mentagrophytes, T. tonsurans and E. floccosum; assay: Antidermatophyte activity, all five dermatophytes taken together; type: cell-based; conditions: for Activity on dermatophytes (in words) / inhibition at 100 µg/mL: 100 µg/mL; for inhibition at 100 µg/mL / IC50: all five dermatophytes; for inhibition at 100 µg/mL: read-out: Percentage of growth inhibition over the five dermatophytes; for IC50: read-out: IC50 range over the five dermatophytes
# [17] = UV filtering parameters of cosmetic formulation on PMMA plates (modified Diffey-Robson); type: physicochemical
smiles,measurement,setting,value
"O=S(=O)(O)c1ccc2[nH]c(-c3ccco3)nc2c1 [Compound 8, 2-(furan-2-yl)-1H-benzimidazole-5-sulfonic Acid]",DPPH (% Inhibition),[1],10.96 ± 0.56%
same,EC50,[2],> 100 µM
same,Cytotoxic concentration,[3],> 100 µM
same,IC50,[4],> 100 µM
same,EC50,[5],> 100 µM
same,EC50,[6],> 100 µM
same,Cytotoxic concentration,HeLa cell cultures,> 100 µM
same,IC50,[7],> 100 µM
same,IC50,[8],≥ 100 µM
same,melting point,,> 250 °C
same,inhibition at 100 µg/mL,Epidermophyton floccosum,< 0%
same,EC50,[9],> 100 µM
same,IC50,[10],≥ 100 µM
same,EC50,[11],> 100 µM
same,IC50,[12],≥ 100 µM
same,inhibition at 100 µg/mL,Trichophyton tonsurans,< 0%
same,EC50,Human Coronavirus (229E),> 100 µM
same,EC50,Coxsackie virus B4,> 100 µM
same,inhibition at 100 µg/mL,Microsporum gypseum,8 ± 2.44%
same,EC50,Adeno virus-2,> 100 µM
same,FRAP,[13],<LOQ *
same,SPF,[14],10.96±0.54
same,UVA/UVB,[14],0.29
same,UVAPF,[14],1.33±0.05
same,λc (critical wavelength),[14],342 nm
same,inhibition at 100 µg/mL,Microsporum canis,< 0%
same,EC50,vaccinia virus,> 100 µM
same,inhibition at 100 µg/mL,[15],< 0%
"c1c[nH]c(-c2nc3ccccc3[nH]2)c1 [Compound 10, 2-(1H-pyrrol-2-yl)-1H-benzimidazole]",DPPH IC50,[1],64.098 µg/mL and 64.10 ± 3.21 µg/mL
same,EC50,[2],> 100 µM
same,Cytotoxic concentration,[3],> 100 µM
same,Activity on dermatophytes (in words),[16],fungicide activity
same,inhibition at 100 µg/mL,[16],~100%
same,IC50,[16],0.97 to 3.8 µg/mL
same,IC50,[4],14 ± 1 µM
same,EC50,[5],> 100 µM
same,EC50,[6],> 100 µM
same,Cytotoxic concentration,HeLa cell cultures,> 100 µM
same,IC50,[7],31 ± 3 µM
same,IC50,[8],9.7 ± 1.7 µM
same,melting point,,> 250 °C
same,IC50,Epidermophyton floccosum,1.07 ± 0.03 µg/mL
same,inhibition at 100 µg/mL,Epidermophyton floccosum,102 ± 4.92%
same,EC50,[9],> 100 µM
same,IC50,[10],37 µM
same,EC50,[11],> 100 µM
same,IC50,[12],15 ± 9 µM
same,IC50,Trichophyton tonsurans,0.97 ± 0.06 µg/mL
same,inhibition at 100 µg/mL,Trichophyton tonsurans,96.97 ± 0.62%
same,EC50,Human Coronavirus (229E),> 100 µM
same,EC50,Coxsackie virus B4,> 100 µM
same,IC50,Microsporum gypseum,1.53 ± 0.05 µg/mL
same,inhibition at 100 µg/mL,Microsporum gypseum,99.1 ± 1.33%
same,EC50,Adeno virus-2,> 100 µM
same,FRAP,[13],1085.57 ± 0.88 µmolTE/g
same,UVA/UVB,[14],0.02
same,UVAPF,[14],1.16±0.05
same,λc (critical wavelength),[14],325 nm
same,IC50,Microsporum canis,1.34 ± 0.02 µg/mL
same,inhibition at 100 µg/mL,Microsporum canis,96.8 ± 3.56%
same,EC50,vaccinia virus,> 100 µM
same,SPF,[17]; 1% in formulation,2.44
same,UVA/UVB,[17]; 1% in formulation,0.70
same,UVAPF,[17]; 1% in formulation,1.16
same,λc,[17]; 1% in formulation,341 nm
same,SPF,[17]; 2% in formulation,2.72
same,UVA/UVB,[17]; 2% in formulation,0.73
same,UVAPF,[17]; 2% in formulation,1.32
same,λc,[17]; 2% in formulation,357 nm
same,SPF,[17]; 3% in formulation,3.06
same,UVA/UVB,[17]; 3% in formulation,0.75
same,UVAPF,[17]; 3% in formulation,1.54
same,λc,[17]; 3% in formulation,364 nm
same,IC50,[15],1.38 ± 0.08 µg/mL
same,inhibition at 100 µg/mL,[15],96.3 ± 2.42%
"c1csc(-c2nc3ccccc3[nH]2)c1 [Compound 12, 2-(thiophen-2-yl)-1H-benzimidazole]",DPPH (% Inhibition),[1],35.05 ± 0.87%
same,EC50,[2],> 100 µM
same,Cytotoxic concentration,[3],> 100 µM
same,Activity on dermatophytes (in words),[16],fungicide activity
same,inhibition at 100 µg/mL,[16],~100%
same,IC50,[16],0.97 to 3.8 µg/mL
same,IC50,[4],> 100 µM
same,EC50,[5],> 100 µM
same,EC50,[6],> 100 µM
same,Cytotoxic concentration,HeLa cell cultures,> 100 µM
same,IC50,[7],> 100 µM
same,IC50,[8],86 ± 17 µM
same,IC50,Epidermophyton floccosum,3.8 ± 0.07 µg/mL
same,inhibition at 100 µg/mL,Epidermophyton floccosum,94.7 ± 5.45%
same,EC50,[9],> 100 µM
same,IC50,[10],> 100 µM
same,EC50,[11],> 100 µM
same,IC50,[12],≥ 100 µM
same,IC50,Trichophyton tonsurans,2.42 ± 0.15 µg/mL
same,inhibition at 100 µg/mL,Trichophyton tonsurans,97 ± 1.34%
same,EC50,Human Coronavirus (229E),> 100 µM
same,EC50,Coxsackie virus B4,> 100 µM
same,IC50,Microsporum gypseum,1.55 ± 0.03 µg/mL
same,inhibition at 100 µg/mL,Microsporum gypseum,100 ± 1.63%
same,EC50,Adeno virus-2,> 100 µM
same,FRAP,[13],75.89 ± 5.43 µmolTE/g
same,UVA/UVB,[14],0.37
same,UVAPF,[14],1.49±0.07
same,λc (critical wavelength),[14],345 nm
same,IC50,Microsporum canis,2.14 ± 0.09 µg/mL
same,inhibition at 100 µg/mL,Microsporum canis,92.9 ± 1.33%
same,EC50,vaccinia virus,> 100 µM
same,SPF,[17]; 1% in formulation,2.41
same,UVA/UVB,[17]; 1% in formulation,0.71
same,UVAPF,[17]; 1% in formulation,1.16
same,λc,[17]; 1% in formulation,340 nm
same,SPF,[17]; 2% in formulation,2.59
same,UVA/UVB,[17]; 2% in formulation,0.70
same,UVAPF,[17]; 2% in formulation,1.22
same,λc,[17]; 2% in formulation,342 nm
same,SPF,[17]; 3% in formulation,2.79
same,UVA/UVB,[17]; 3% in formulation,0.69
same,UVAPF,[17]; 3% in formulation,1.26
same,λc,[17]; 3% in formulation,344 nm
same,IC50,[15],1.74 ± 0.11 µg/mL
same,inhibition at 100 µg/mL,[15],98.1 ± 2.76%
